These results are taken from US11524966B1 (Valo Early Discovery, Inc., priority 2017, dated 2022).

For this assay, the target named is T1, USP28 (His-tagged USP28-FL-mammalian) (Homo sapiens, UniProt Q96RU2).
T1 construct: Expression of USP28 (1-1077)-TEV-6*His (pTT5 vector); made in house; host or cells: Expi293f cells (pTT5 vector)
T1 sequence (Q96RU2 1-1077): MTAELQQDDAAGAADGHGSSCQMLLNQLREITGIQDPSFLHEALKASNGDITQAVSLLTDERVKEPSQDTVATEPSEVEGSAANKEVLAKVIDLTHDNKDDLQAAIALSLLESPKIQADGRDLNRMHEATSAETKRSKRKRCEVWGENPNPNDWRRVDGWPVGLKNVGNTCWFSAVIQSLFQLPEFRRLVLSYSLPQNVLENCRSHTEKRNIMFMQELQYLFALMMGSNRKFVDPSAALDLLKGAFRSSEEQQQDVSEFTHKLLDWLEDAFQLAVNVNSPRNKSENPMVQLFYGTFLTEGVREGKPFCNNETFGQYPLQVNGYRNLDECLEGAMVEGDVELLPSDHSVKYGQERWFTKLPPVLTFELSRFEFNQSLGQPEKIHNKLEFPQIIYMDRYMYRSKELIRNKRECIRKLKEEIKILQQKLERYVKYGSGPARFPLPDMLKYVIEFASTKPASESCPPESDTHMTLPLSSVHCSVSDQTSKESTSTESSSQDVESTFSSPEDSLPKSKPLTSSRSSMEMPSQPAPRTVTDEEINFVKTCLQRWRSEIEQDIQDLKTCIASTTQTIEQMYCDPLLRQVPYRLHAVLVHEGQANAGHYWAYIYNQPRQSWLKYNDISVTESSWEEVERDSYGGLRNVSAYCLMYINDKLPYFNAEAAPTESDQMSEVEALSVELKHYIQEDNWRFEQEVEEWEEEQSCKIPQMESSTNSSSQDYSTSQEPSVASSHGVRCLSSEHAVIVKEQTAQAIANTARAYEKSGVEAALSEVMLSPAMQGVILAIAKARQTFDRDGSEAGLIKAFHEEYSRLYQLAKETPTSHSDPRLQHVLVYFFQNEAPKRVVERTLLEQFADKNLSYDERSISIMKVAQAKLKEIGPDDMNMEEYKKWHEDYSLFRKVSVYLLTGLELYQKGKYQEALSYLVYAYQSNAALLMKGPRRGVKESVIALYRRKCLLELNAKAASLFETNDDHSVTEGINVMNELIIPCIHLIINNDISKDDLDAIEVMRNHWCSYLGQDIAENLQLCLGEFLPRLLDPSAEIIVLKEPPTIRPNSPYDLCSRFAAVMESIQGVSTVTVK
Briefly: Ubiquitin-Rhodamine 110 Assay for USP28 Activity, Example A-1(a). It counts as biochemical. The conditions noted are these: Ubiquitin-Rhodamine 110 assay, Example A-1(a); read-out: USP28 A-1(a) IC50 range. The gist of the method: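 Full-length His-tagged human USP28 (1-1077, Expi293f-expressed), […], with 25 nM Ub-Rh110 (<<Km) in pH 8.0 Tris buffer with BME, BGG, Triton X-100. 10-point dilutions (25 μM-1.3 nM), 45 min at room temperature, citric acid stop, fluorescence 485/535 nm; IC50 by 4-parameter fit.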
Usually IC50 stands for the concentration that inhibits the measured activity by half. For `CCn1ccc2cc(C(=O)N[C@H]3CCc4cc(N5C[C@H](OC)[C@@H](N)C5)ccc4C3)nnc21` [Example 131, N-[(2S)-6-[(3S,4S)-3-amino-4-methoxypyrrolidin-1-yl]-1,2,3,4-tetrahydronaphthalen-2-yl]-7-ethyl-7H-pyrrolo[2,3-c]pyridazine-3-carboxamide], the half-maximal inhibitory concentration (IC50) is over 2000 nM.

Take `Cc1ccc2c(N)c(C(=O)N[C@H]3COc4cc(N5CC[C@H]6CNC[C@H]65)ccc4C3)sc2n1` [Example 166, N-[(3R)-7-[(3aS,6aS)-octahydropyrrolo[2,3-c]pyrrol-1-yl]-3,4-dihydro-2H-1-benzopyran-3-yl]-3-amino-6-methylthieno[2,3-b]pyridine-2-carboxamide]: the 50% inhibitory concentration (IC50) was in the range of 1 to 50 nM.

With `Cc1ccc2c(N)c(C(=O)N[C@H]3COc4cc(N5C[C@@H]6C[C@H]5CN6)c(F)c(F)c4C3)sc2n1` [Example 112, 3-amino-N-[(3R)-7-[(1S,4S)-2,5-diazabicyclo[2.2.1]heptan-2-yl]-5,6-difluoro-3,4-dihydro-2H-1-benzopyran-3-yl]-6-methylthieno[2,3-b]pyridine-2-carboxamide], the IC50 was in the range of 1 to 50 nM.

As for `Cc1cc(C)c2c(N)c(C(=O)N[C@H]3COc4cc(N5CCNCC5)c(F)c(F)c4C3)sc2n1` [Example 159, 3-amino-N-[(3R)-5,6-difluoro-7-(piperazin-1-yl)-3,4-dihydro-2H-1-benzopyran-3-yl]-4,6-dimethylthieno[2,3-b]pyridine-2-carboxamide], the IC50 is over 2000 nM.

`COC[C@@H]1CN(c2ccc3c(c2)OC[C@H](NC(=O)c2sc4nc(C)ccc4c2N)C3)C[C@@H]1N` [Example 161, 3-amino-N-[(3R)-7-[(3R,4R)-3-amino-4(methoxymethyl)pyrrolidin-1-yl]-3,4-dihydro-2H-1-benzopyran-3-yl]-6-methylthieno[2,3-b]pyridine-2-carboxamide]: the IC50 fell in the range of 1 to 50 nM.

Take `CO[C@H]1CN(c2cc3c(cc2C#N)C[C@@H](NC(=O)c2sc4nc(C)cnc4c2N)CO3)C[C@@H]1N` [Example 176, 7-amino-N-[(3R)-7-[(3S,4S)-3-amino-4-methoxypyrrolidin-1-yl]-6-cyano-3,4-dihydro-2H-1-benzopyran-3-yl]-3-methylthieno[2,3-b]pyrazine-6-carboxamide]: the IC50 is 1 to 50 nM.

`CO[C@H]1CN(c2ccc3c(c2)OC[C@H](NC(=O)c2sc4nc(C)ccc4c2N)C3)CC[C@@H]1N` [Example 128, 3-amino-N-[(3R)-7-[(3S,4S)-4-amino-3-methoxypiperidin-1-yl]-3,4-dihydro-2H-1-benzopyran-3-yl]-6-methylthieno[2,3-b]pyridine-2-carboxamide]: the IC50 lay in the range of 1 to 50 nM.

In the case of `Cc1ccc2c(N)c(C(=O)N[C@H]3COc4c(F)c(N5C[C@H]6C[C@@H]5CN6)cc(F)c4C3)sc2n1` [Example 111, 3-amino-N-[(3R)-7-[(1R,4R)-2,5-diazabicyclo[2.2.1]heptan-2-yl]-5,8-difluoro-3,4-dihydro-2H-1-benzopyran-3-yl]-6-methylthieno[2,3-b]pyridine-2-carboxamide], the 50% inhibitory concentration (IC50) is 1 to 50 nM.

For `CO[C@H]1CN(c2cc(F)c3c(c2)CC[C@H](NC(=O)c2sc4nc(C)ccc4c2N)C3)C[C@@H]1N` [Example 136, 3-amino-N-[(2S)-6-[(3S,4S)-3-amino-4-methoxypyrrolidin-1-yl]-8-fluoro-1,2,3,4-tetrahydronaphthalen-2-yl]-6-methylthieno[2,3-b]pyridine-2-carboxamide], the concentration for half-maximal inhibition (IC50) was over 2000 nM.

For `CO[C@H]1CN(c2cc(F)c3c(c2)OC[C@H](NC(=O)c2sc4nc(C)ccc4c2N)C3)C[C@H]1N` [Example 146], the 50% inhibitory concentration (IC50) was 1 to 50 nM.

Turning to `Cc1ccc2c(N)c(C(=O)N[C@H]3COc4cc(N5C[C@H](OC6CC6)[C@@H](N)C5)ccc4C3)sc2n1` [Example 140, 3-amino-N-[(3R)-7-[(3S,4S)-3-amino-4-cyclopropoxypyrrolidin-1-yl]-3,4-dihydro-2H-1-benzopyran-3-yl]-6-methylthieno[2,3-b]pyridine-2-carboxamide], the 50% inhibitory concentration (IC50) is 1 to 50 nM.

As to `Cc1ccc2c(N)c(C(=O)N[C@H]3COc4cc([C@H]5C[C@@H](N)C5)ccc4C3)sc2n1` [Example 123, 3-amino-6-methyl-N-[(3R)-7-[(1s,3S)-3-aminocyclobutyl]-3,4-dihydro-2H-1-benzopyran-3-yl]thieno[2,3-b]pyridine-2-carboxamide], the IC50 fell in the range of 1 to 50 nM.

Take `Cc1cnc2c(N)c(C(=O)N[C@H]3COc4cc(N5CC6CCC(C5)N6)c(F)c(F)c4C3)sc2n1` [Example 97, 7-amino-N-[(3R)-7-{3,8-diazabicyclo[3.2.1]octan-3-yl]-5,6-difluoro-3,4-dihydro-2H-1-benzopyran-3-yl]-3-methylthieno[2,3-b]pyrazine-6-carboxamide]: the IC50 fell in the range of 1 to 50 nM.

On to `CCO[C@H]1CN(c2ccc3c(c2)OC[C@H](NC(=O)c2sc4nc(C)ccc4c2N)C3)C[C@H]1N` [Example 152], for which the concentration for half-maximal inhibition (IC50) lay in the range of 1 to 50 nM.

`CCO[C@@H]1CN(c2ccc3c(c2)OC[C@H](NC(=O)c2sc4nc(C)ccc4c2N)C3)C[C@@H]1N` [Example 151, 3-amino-N-[(3R)-7-[(3S,4R)-3-amino-4-ethoxypyrrolidin-1-yl]-3,4-dihydro-2H-1-benzopyran-3-yl]-6-methylthieno[2,3-b]pyridine-2-carboxamide]: the IC50 was 1 to 50 nM.

On to `Cc1ccc2c(N)c(C(=O)N[C@@H]3CCc4c(ccc(N5CC6CNCC(C5)O6)c4F)C3)sc2n1` [Example 100, 3-amino-N-[(2R)-5-fluoro-6-{9-oxa-3,7-diazabicyclo[3.3.1]nonan-3-yl}-1,2,3,4-tetrahydronaphthalen-2-yl]-6-methylthieno[2,3-b]pyridine-2-carboxamide], for which the 50% inhibitory concentration (IC50) lay in the range of 50 to 200 nM.

As for `COC[C@H]1CN(c2ccc3c(c2)OC[C@H](NC(=O)c2sc4nc(C)ccc4c2N)C3)C[C@H]1N` [Example 162, 3-amino-N-[(3R)-7-[(3S,4S)-3-amino-4-(methoxymethyl)pyrrolidin-1-yl]-3,4-dihydro-2H-1-benzopyran-3-yl]-6-methylthieno[2,3-b]pyridine-2-carboxamide], the IC50 lay in the range of 1 to 50 nM.

For the compound `Cc1ccc2c(N)c(C(=O)N[C@H]3COc4c(F)c(N5C[C@@H]6C[C@H]5CN6)cc(F)c4C3)sc2n1` [Example 110, 3-amino-N-[(3R)-7-[(1S,4S)-2,5-diazabicyclo[2.2.1]heptan-2-yl]-5,8-difluoro-3,4-dihydro-2H-1-benzopyran-3-yl]-6-methylthieno[2,3-b]pyridine-2-carboxamide], the IC50 lay within 1 to 50 nM.

Consider `CO[C@@H]1CN(c2ccc3c(c2)OC[C@H](NC(=O)c2sc4nc(C)ccc4c2N)C3)C[C@@H]1N` [Example 121, 3-amino-N-[(3R)-7-[(3S,4R)-3-amino-4-methoxypyrrolidin-1-yl]-3,4-dihydro-2H-1-benzopyran-3-yl]-6-methylthieno[2,3-b]pyridine-2-carboxamide], for which the IC50 lay in the range of 1 to 50 nM.

For `CCO[C@H]1CN(c2ccc3c(c2)OC[C@H](NC(=O)c2sc4nc(C)ccc4c2N)C3)C[C@@H]1N` [Example 115, 3-amino-N-[(3R)-7-[(3S,4S)-3-amino-4-ethoxypyrrolidin-1-yl]-3,4-dihydro-2H-1-benzopyran-3-yl]-6-methylthieno[2,3-b]pyridine-2-carboxamide], the half-inhibitory concentration (IC50) was 1 to 50 nM.
